Reference: PMC9970268 (Cancer Research Communications, 2022)
Where two headings read alike, the source gives them in different places.

Legend:
Rac = conditions: cited from earlier work
[1] = system: GFP-HER2-BM, MDA-MB-231, and MDA-MB-468 cancer cell lines; experiment: Cell viability (MTT) assay, three cancer cell lines together; assay type: cell-based, human
Procedure: (§1) Using CellTiter 96 Non-Radioactive Cell Proliferation Assay (Promega, Corp.) according to manufactures’ instructions, formazan was used as an indicator of viable cells at an absorbance 570 nm in a Tecan Microplate Reader M100 (Tecan). Data were calculated as fold change from vehicle and transformed to logarithm base 10. 0 concentration was replaced with 1 nmol/L to fit using the 4-parameter logic nonlinear regression model in GraphPad Prism software. (n = 3 biologic replicates: with three technical replicates each).

MDA-MB-231 cells [2] = experiment: Wound healing assay; assay type: cell-based, human; conditions: 250 nmol/L; 12 and 24 hours
Procedure: MDA-MB-231 cells were plated on 12-well plates at equal cell density until confluent. Then the media was changed to 1% FBS, and a single scratch was made in the center of the monolayer culture with a pipet tip. Compounds were added immediately at 250 or 500 nmol/L and images were digitally acquired from a Keyence microscope (10×) at 0, 12, and 24 hours. The scratch area was quantified in ImageJ using the Macro Wound Healing Tool (http://dev.mri.cnrs.fr/projects/imagej-macros/wiki/Wound_Healing_Tool; n = 3 biologic replicates: with three technical replicates each).

Cdc42 = system: Cdc42; set-up: method as in PMID 23382385; conditions: read-out: IC50, Cdc42 selective inhibitor; cited from earlier work
Rac1 [3] = system: Rac1; set-up: method as in PMID 15128949; conditions: inhibits Rac1 binding and activation by the GEFs Trio and Tiam1; cited from earlier work
GFP-HER2-BM cells [4] = experiment: Cell viability (MTT) assay; assay type: cell-based, human
Procedure: as §1
(§2) All half maximal growth inhibitory concentration (GI50) values were determined by using the 4-parameter logistic curve model in GraphPad Prism 9 software. Statistical analyses were done also using GraphPad Prism 9 software, and differences were considered statistically significant at P ≤ 0.05 using ordinary one-way ANOVA or unpaired Student t test with Dunnet multiple comparison tests.

GFP-HER2-BM cells [5] = experiment: Apoptosis assay (Caspase-Glo3/7); assay type: cell-based, human; conditions: 500 nmol/L, 48 hours
Procedure: (§3) Apoptosis was measured using a Caspase-Glo3/7 Luminescence Assay Kit as per manufacturer's instructions (Promega, Corp.), as described previously ([23]). Briefly, Caspase-3/7 Glo reagent was added and incubated at room temperature for 60 minutes and caspase-3/7 activities were determined by detecting luminescence using Tecan Microplate Reader M100 (Tecan). Data were calculated as fold change from vehicle. (n = 3 biologic replicates: with three technical replicates each).

CYP2C19 = molecular target: T1, CYP2C19 (Homo sapiens, UniProt P33261); experiment: CyP450 enzyme assay (P450-Glo); assay type: in vitro ADME
T1 construct: purchased Promega
Procedure: (§4) The assay was carried out using P450-Glo Screening System (Promega). The system contained recombinant human CYP enzyme and P450 reductase (and cytochrome b5 for CYP2C9, 2C19, and 3A4), luminogenic substrates appropriate for each CYP enzyme, a NADPH regeneration system (containing NADP+), and luciferin detection reagent. […] These compounds and organic solvents acetonitrile, and DMSO were purchased from Sigma-Aldrich.
(§5) First, 12.5 μL of the 4X stock solution of test compounds or positive controls (appropriate for each enzyme) were added to the “treated” wells. For the “untreated” (the values from these wells represent total CYP activity) and “minus-P450 control” wells (the values from these wells represent the CYP-independent background luminescence of the assay), 12.5 μL of vehicle was added. Then, 12.5 μL of the 4X control reaction mixture (containing membrane preparations devoid of CYP enzymes, the appropriate luminogenic substrate, and potassium phosphate buffer) were added to the minus-P450 control wells, and 12.5 μL of the 4X reaction mixture (containing human CYP membrane preparations, the appropriate luminogenic substrate, and potassium phosphate buffer) were added to all other wells. The plates were preincubated at room temperature for 10 minutes with the reaction mixture (membrane with enzyme, substrate, and 1 mol/L potassium phosphate buffer), and then 2X NADPH regeneration system was added to initiate the reaction. After incubation at room temperature for 30 minutes, 50 μL of the Luciferin Detection Reagent was added to stop the reaction and generate the luminescent signal. Before reading, the plate was incubated at room temperature for 20 minutes to stabilize the luminescent signal. The luminescence was measured using an Infinite F200 plate reader (Tecan). […] The percentage of CYP enzyme activity versus log concentration of test compounds were plotted to calculate the IC50 values.

CYP2C9 = molecular target: T2, CYP2C9 (Homo sapiens, UniProt P11712); experiment: CyP450 enzyme assay (P450-Glo); assay type: in vitro ADME; conditions: recombinant human CYP enzyme, 0.001–100 μmol/L
T2 construct: purchased Promega
Procedure: as §4, §5

CYP3A4 = molecular target: T3, CYP3A4 (Homo sapiens, UniProt P08684); experiment: CyP450 enzyme assay (P450-Glo); assay type: in vitro ADME; conditions: recombinant human CYP enzyme, 0.001–100 μmol/L
T3 construct: purchased Promega
Procedure: as §4, §5

MDA-MB-468 cells [6] = experiment: Apoptosis assay (Caspase-Glo3/7); assay type: cell-based, human; conditions: 500 nmol/L, 48 hours
Procedure: as §3

MCF10A cells = experiment: Cell viability (MTT) assay; assay type: cell-based, human
Procedure: as §1, §2

MDA-MB-231 cells [7] = experiment: Cell viability (MTT) assay; assay type: cell-based, human
Procedure: as §1, §2

HMEC cells = experiment: Cell viability (MTT) assay; assay type: cell-based, human; conditions: 120 hours, 0 to 1,000 nmol/L
Procedure: as §1

MDA-MB-468 cells [8] = experiment: Cell viability (MTT) assay; assay type: cell-based, human; conditions: 500 nmol/L, 72 hours
Procedure: as §1

MCF7 breast cancer cells = experiment: Cell viability (MTT) assay; assay type: cell-based, human; conditions: 250 nmol/L, 120 hr
Procedure: as §1
Supplementary Figure S1. Percentage cell viability of MDA-MB-231, GFP-HER2-BM, […]
nM for 120 hr. The bar graphs are presented as individual fold change data points from vehicle and grouped mean ± SEM. (n = 3; *, P < 0.05; ** P < 0.01).
(1 picture or pasted object on this page, not shown here)

MDA-MB-231 cells [9] = experiment: Apoptosis assay (Caspase-Glo3/7); assay type: cell-based, human; conditions: 500 nmol/L, 48 hours
Procedure: as §3

[10] = system: MDA-MB-231, GFP-HER2-BM, and MDA-MB-468 cells; experiment: Apoptosis assay (Caspase-Glo3/7), cell line not specified; assay type: cell-based, human; conditions: 500 nmol/L, 48 hours
Procedure: as §3

MDA-MB-231 cells [11] = experiment: Phalloidin staining of F-actin, cell phenotype; assay type: cell-based, human; conditions: 250 nmol/L, 12 hours
Description: Cells were fixed, permeabilized, and stained with rhodamine phalloidin to visualize F-actin as described previously ([23]). Fluorescence micrographs were acquired at 40× in a Keyence fluorescence microscope.

A549 lung cancer cells = experiment: EGF-induced ruffle formation; assay type: cell-based, human; conditions: 24 hours, then EGF 200 ng/mL
Procedure: Cells were fixed with 4% formaldehyde and F-actin stained with rhodamine phalloidin. Slides were visualized by fluorescence microscopy and five random fields were scored for the number of ruffles. Ruffle area was measured by thresholding for single intensity using ImageJ/Fiji software, as in ref. [29].

[12] = molecular target: T4, Rac1(G15A) interaction with Vav2 (Homo sapiens, UniProt P63000, G15A); experiment: Rac1 (G15A) pulldown assay, Vav2; assay type: binding; conditions: for potency relative to EHop-016 (parent compound): Vav/Rac inhibitor
T4 construct: purchased Cell Biolabs; host or cells: GEF from MDA-MB-231 lysate
Procedure: MDA-MB-231 cells were lysed in 1% Triton X-100, 20 mmol/L HEPES, pH 7.4, 150 mmol/L NaCl, 5 mmol/L MgCl2, and protease inhibitors, and processed as described previously ([20]). Equal amounts of protein from cleared lysates were incubated for 1 hour at 4°C with glutathione-agarose beads conjugated to GST-Rac1 and GST-Cdc42(G15A) nucleotide-free mutant (Cell Biolabs) that were preincubated (for 1 hour) with vehicle or Rac/Cdc42 inhibitors, as indicated. The beads were washed, and pulldowns were immunoblotted for Vav2 or Ect2.

Rac1 [13] = molecular target: Rac1 (Homo sapiens, UniProt P63000); experiment: Rac activation pulldown assay in MDA-MB-231 cells; conditions: MDA-MB-231, read-out: inhibition of Rac1 activity, MDA-MB-231, 250 nmol/L, 24 hours
Rac1B splice variant = Rac1B splice variant (Homo sapiens, UniProt P63000); experiment: Rac1B activation pulldown assay in MDA-MB-468 cells; conditions: MDA-MB-468, read-out: inhibition of Rac1B activation, MDA-MB-468, 500 nmol/L, 24 hours

T1 sequence (P33261 whole entry): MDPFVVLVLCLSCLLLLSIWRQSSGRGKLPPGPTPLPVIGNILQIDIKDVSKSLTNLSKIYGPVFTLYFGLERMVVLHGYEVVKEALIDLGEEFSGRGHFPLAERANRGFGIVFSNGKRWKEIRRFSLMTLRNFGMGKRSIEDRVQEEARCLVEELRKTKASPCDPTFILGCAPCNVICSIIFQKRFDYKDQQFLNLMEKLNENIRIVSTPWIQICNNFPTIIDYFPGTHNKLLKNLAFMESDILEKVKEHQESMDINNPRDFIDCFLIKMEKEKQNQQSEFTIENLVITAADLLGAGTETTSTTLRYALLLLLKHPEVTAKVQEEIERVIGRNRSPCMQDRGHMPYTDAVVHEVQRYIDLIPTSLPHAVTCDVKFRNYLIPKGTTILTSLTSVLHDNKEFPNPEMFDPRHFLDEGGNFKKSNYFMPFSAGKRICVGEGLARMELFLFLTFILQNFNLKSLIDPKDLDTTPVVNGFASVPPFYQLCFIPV
T3 sequence (P08684 whole entry): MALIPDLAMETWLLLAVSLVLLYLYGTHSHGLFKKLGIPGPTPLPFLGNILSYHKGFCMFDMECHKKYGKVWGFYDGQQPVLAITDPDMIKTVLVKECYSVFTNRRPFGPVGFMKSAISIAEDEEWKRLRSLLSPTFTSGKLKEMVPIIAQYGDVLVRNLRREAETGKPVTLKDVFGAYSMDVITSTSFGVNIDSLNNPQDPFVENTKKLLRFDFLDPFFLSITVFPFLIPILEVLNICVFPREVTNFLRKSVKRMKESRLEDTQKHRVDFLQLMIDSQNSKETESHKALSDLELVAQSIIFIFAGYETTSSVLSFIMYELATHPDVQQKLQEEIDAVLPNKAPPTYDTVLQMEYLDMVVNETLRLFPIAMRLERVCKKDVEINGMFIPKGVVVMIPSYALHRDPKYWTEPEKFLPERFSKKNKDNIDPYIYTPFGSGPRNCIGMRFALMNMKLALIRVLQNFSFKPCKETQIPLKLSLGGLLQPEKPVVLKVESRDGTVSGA
T2 sequence (P11712 whole entry): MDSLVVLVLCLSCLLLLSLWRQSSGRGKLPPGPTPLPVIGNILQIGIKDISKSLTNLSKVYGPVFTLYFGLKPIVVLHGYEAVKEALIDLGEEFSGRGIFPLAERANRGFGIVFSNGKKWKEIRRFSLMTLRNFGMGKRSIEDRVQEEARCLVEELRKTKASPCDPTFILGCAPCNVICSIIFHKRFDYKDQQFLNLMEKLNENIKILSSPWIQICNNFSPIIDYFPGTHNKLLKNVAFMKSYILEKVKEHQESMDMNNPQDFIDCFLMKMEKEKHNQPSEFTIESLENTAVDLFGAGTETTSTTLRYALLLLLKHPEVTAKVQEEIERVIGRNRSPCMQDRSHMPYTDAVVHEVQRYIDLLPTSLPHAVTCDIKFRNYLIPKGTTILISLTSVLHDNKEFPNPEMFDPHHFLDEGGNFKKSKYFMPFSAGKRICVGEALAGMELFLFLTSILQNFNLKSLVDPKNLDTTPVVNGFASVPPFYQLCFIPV

Compound: O=C(C#Cc1ccccc1)c1cccc([N+](=O)[O-])c1 [MLS000532223]
- IC50 (Rac): > 10 µM

Compound: CCn1c2ccccc2c2cc(-n3nncc3-c3ccccn3)ccc21 [MBQ-170]
- effect on viability of cancer cells [1]: did not affect the viability of cancer cells
- wound closure (MDA-MB-231 cells [2]): wound was closed in 24 hours

Compound: COc1ccc(C2=NN(c3ccc(S(N)(=O)=O)cc3)C(c3ccccc3)C2)cc1 (stereo not drawn) [ML141]
- IC50 (Cdc42): 3 to 5 µM

Compound: CCn1c2ccccc2c2cc(Nc3ccnc(NCCCN4CCOCC4)n3)ccc21 [EHop-016]
- IC50 (Rac; blocking the interaction of Rac with the GEF Vav): 1.1 µM

Compound: CCn1c2ccccc2c2cc(-n3nncc3-c3cccc(C)c3)ccc21 [MBQ-169]
- inhibition of cell viability (GFP-HER2-BM cells [4]; 500 nmol/L, 72 hours): approximately 75%
- Caspase-3/7 activity (GFP-HER2-BM cells [5]): significantly increased Caspase-3/7 activity
- CYP2C19 IC50, fold lower than the IC50 for the positive control (CYP2C19): approximately 6 fold
- IC50 at 30 min (CYP2C19; human, recombinant human CYP enzyme, 0.001–100 μmol/L): 0.58 µM
- IC50 (CYP2C9): 0.87 µM
- IC50 (CYP3A4): 3.31 µM

Compound: CCn1c2ccccc2c2cc(-n3nnc(C(O)c4ccco4)c3-c3ccccc3)ccc21 (stereo not drawn) [EHop-098]
- inhibition of cell viability (GFP-HER2-BM cells [4]; 500 nmol/L, 72 hours): 80%

Compound: O=c1cc(CN2CCOCC2)occ1OCCCCCSc1ccnc2cc(C(F)(F)F)ccc12 [EHT1864]
- IC50 (Rac): > 10 µM

Compound: CCn1c2ccccc2c2cc(-n3nnc(C(O)c4cccnc4)c3-c3ccccc3)ccc21 (stereo not drawn) [EHop-040]
- inhibition of cell viability (GFP-HER2-BM cells [4]; 500 nmol/L, 72 hours): 80%
- Caspase-3/7 activity (GFP-HER2-BM cells [5]): significantly increased Caspase-3/7 activity
- Caspase-3/7 activity (MDA-MB-468 cells [6]): significantly increased Caspase-3/7 activity

Compound: CCn1c2ccccc2c2cc(-n3nnc(C(O)c4cccc(OC)c4)c3-c3ccccc3)ccc21 (stereo not drawn) [EHop-097]
- inhibition of cell viability (GFP-HER2-BM cells [4]; 250 nmol/L, 120 hr): approximately 60%
- inhibition of cell viability (GFP-HER2-BM cells [4]; 500 nmol/L, 72 hours): 80%
- GI50 (GFP-HER2-BM cells [4]; Homo sapiens, 120 hours, 0 to 1,000 nmol/L): 0.261 µM
- inhibition of cell viability (MCF10A cells; 250 nmol/L, 120 hr): not effective
- GI50 (MCF10A cells; Homo sapiens, MCF-10A, 120 hours, 0 to 1,000 nmol/L): 0.335 µM
- inhibition of cell viability (MDA-MB-231 cells [7]; 250 nmol/L, 120 hr): not effective
- inhibition of cell viability (MDA-MB-231 cells [7]; 500 nmol/L, 72 hours): 50%
- GI50 (MDA-MB-231 cells [7]; Homo sapiens, MDA-MB-231, 120 hours, 0 to 1,000 nmol/L): 0.327 µM
- effect on viability of HMECs (HMEC cells): did not affect the viability of HMECs
- inhibition of cell viability (MDA-MB-468 cells [8]): nonstatistically significant trend
- inhibition of cell viability (MCF7 breast cancer cells): not effective
- Caspase-3/7 activity (GFP-HER2-BM cells [5]): significantly increased Caspase-3/7 activity
- Caspase-3/7 activity (MDA-MB-231 cells [9]): significantly increased Caspase-3/7 activity
- caspase-3/7 activity compared with the vehicle [10]: three to five times
- wound closure (MDA-MB-231 cells [2]): wound area was maintained at 12 and 24 hours
- cell phenotype, actin cytoskeleton (MDA-MB-231 cells [11]): smaller and less spread but did not have the characteristic loss of polarity
- loss in ruffles (A549 lung cancer cells; 500 nmol/L): 33%
- decrease in ruffles (A549 lung cancer cells; 1,000 nmol/L): 58%
- Rac1(G15A) interaction with Vav2 ([12]; 250 nmol/L, 1 hour preincubation, MDA-MB-231 cell lysates): blocked the interaction
- efficacy compared with EHop-016 at 8 μmol/L ([12]; EHop-097 at 250 nmol/L): 4 X
- potency relative to EHop-016 (parent compound) [12]: 10–30 ×
- potency relative to EHop-016 (parent compound) ([12]; listed as Ehop-097): 10 ×
- inhibition at 0.25 µM (Rac1 [13]): ~85%
- inhibition at 0.5 µM (Rac1B splice variant): ~60%

Compound: CCn1c2ccccc2c2cc(-n3nncc3-c3cccnc3)ccc21 [MBQ-171]
- inhibition of cell viability (GFP-HER2-BM cells [4]; 500 nmol/L, 72 hours): approximately 75%
- IC50 (CYP2C19; recombinant human CYP enzyme, 0.001–100 μmol/L): 12.4 µM
- IC50 (CYP2C9): 1.55 µM
- IC50 (CYP3A4): 8.04 µM
